In US20180318199A1, “Pharmaceutical Composition Having Anti-Aging Properties against High-Glucose” (TAIWAN LEADER BIOTECH CORP., priority 2017, published 2018):

Test system: SIRT-1, SIRT-3 and SIRT-6
Assay: RT-PCR/Q-PCR of SIRT genes in HNDFs
Format: cell-based, human
Settings: 72 h
Source text: As shown in the figures, to determine whether ANM regulates HNDF senescence through a SIRT-1-mediated pathway, expression levels of SIRT genes SIRT-1, SIRT-3 and SIRT-6 are is examined.
Total RNA is extracted and subjected to Q-PCR analysis to monitor SIRT-1, SIRT-3 and SIRT-6 expression. Relative mRNA levels are normalized by β-actin mRNA. Previous studies have shown that exposure of endothelial cells to HG rapidly decreases levels of expression of SIRT genes.
Total RNA is extracted from cultured HNDFs using Trizol Reagent (Thermo Fisher Scientific). Q-PCR analysis is performed using Applied Biosystems detection instruments and software. Forward and reverse primers (10 μM), and the working solution SYBR green, is used as a PCR master mix, under the following conditions: 96° C. for 3 minutes followed by 40 cycles at 96° C. for 1 minute, 50° C. for 30 seconds and 72° C. for 90 seconds. GAPDH is used as an internal standard to control for variability in amplification because of differences in starting mRNA concentrations. The copy number of each transcript is calculated as the relative copy number normalized by GAPDH copy number.

In the case of C=C(CCC(C)C1CCC2C3=C(C(=O)C(O)C21C)C1(C)CCC(O)C(C)C1CC3)C(C)C(=O)O (centres unmarked) [ANM, antcin M], the “SIRT-1 and SIRT-6 mRNA, HG-induced depletion” value (ANM 10 μM + HG, Q-PCR) is reported as “rescues” and the “SIRT-1, SIRT-3 and SIRT-6 levels (RT-PCR)” value (ANM 10 μM, no HG, vs control) is reported as “significantly increased”.
